{"source": "patent US7943382B2", "about": "“Method for inspecting fat-soluble vitamin and/or fat-soluble food factor by saliva analysis” (Mitsubishi Chemical Medience Corporation, priority 2004, dated 2011)", "key": {"[1]": {"experiment": "Correlation between the blood level and the content in saliva (CoQ10 ingestion tests part 1 and 2)", "assay_type": "in vivo, human", "description": "11 volunteers were made to ingest orally two tablets (CoQ10 content: 100 mg in two tablets) of Q10AA Multi (trade name, Shiseido Co., Ltd., hereinafter may be referred to “Supplement S”), a commercial CoQ10 supplement, at 7:00 every morning continuously for a week. Meanwhile, the contents of the fat-soluble vitamins and fat-soluble food factors in the Supplement S are 50 mg/tablet as for CoQ10, and 16.4 mg/tablet as for α-tocopherol. Then parotid saliva, directly collected saliva and heparinized plasma were collected from PM 4:00 to 5:00, three times, before and one week after ingestion and two weeks after discontinuation of ingestion. The volunteer had the mouth rinsed with water, and kept quiet on a chair for 5 minutes, while the volunteer accumulated saliva in the oral cavity and discharge to initialize the oral cavity, followed by collecting saliva. Approximately 1 ml of saliva accumulated in the oral cavity was collected as directly collected saliva. In order to collect saliva from the parotid gland, an absorbent cotton of 2 g was put beneath the tongue to prevent contamination with saliva from sublingual gland and submandibular gland, while the Saliva-sampler comprising a cotton saliva absorber and an indicator which informed termination of collection by color change was inserted between the teeth and the cheek near the open of the parotid gland. […]"}, "[2]": {"experiment": "CoQ10 level in parotid saliva of non-CoQ10 supplement-ingesting volunteers", "assay_type": "in vivo, human", "details": "55 non-CoQ10 supplement-ingesting volunteers; 2SD 13.5 ng/ml", "from_the_text": "Therefore, a standard that can assess an individually suitable intake is required. It can be easily understood from FIG. 7 that the mean level and SD (standard deviation) of CoQ10 in parotid saliva of non-CoQ10 supplement-ingesting volunteers is useful as an example of the standard. A case that a volunteer, who is taking the CoQ10 supplement at an adequate time after meals, ingests it to increase the blood level up to a limit of the CoQ10 level of a non-ingesting volunteer, will be taken as an example for explanation. If a CoQ10 level in parotid saliva is far over the mean value +2SD, the intake is reduced, and if it is between the mean value −2SD and the mean value +2SD, the intake is increased, and the CoQ10 level is repeated inspected in saliva collected again at later dates, allowing the object to be achieved. In addition, the mean level and 2SD in FIG. 7 are obtained from the CoQ10 levels in parotid saliva of the 55 non-CoQ10 supplement-ingesting volunteers, the mean level is 17.0 ng/ml and the 2SD is 13.5 ng/ml."}, "[3]": {"experiment": "Extraction of CoQ10 from saliva and absorbent depending on deproteinization solvent", "assay_type": "physicochemical", "description": "In the method of preparing the specimens in examples 1 and 2, the solvents were weighed using ethanol (90, 75, 50%), isopropanol (90, 75, 50%) or methanol (90, 75, 50%). Saliva of 600 μl, and 600, 1800 and 5400 μl of the solvent respectively were added to 50 mg of an absorbent to have a final concentrations of 50, 75 and 90% (V/V) respectively. The resultant solution was mixed, stirred, and centrifuged at 4° C. by 1000 G to get a supernatant, 20 μl of which was used to analyze CoQ10 by HPLC. As a result, the values shown in the following Table 2 “The CoQ10 concentrations in the supernatant obtained by deproteinizing saliva in three solvents and at three concentration levels (ng/ml)” were obtained. Ethanol, which was not affected by adsorption to proteins even at a concentration of 75% and could efficiently extract, was confirmed to be most suitable."}}, "data": [{"smiles": "COC1=C(OC)C(=O)C(C/C=C(\\C)CC/C=C(\\C)CC/C=C(\\C)CC/C=C(\\C)CC/C=C(\\C)CC/C=C(\\C)CC/C=C(\\C)CC/C=C(\\C)CC/C=C(\\C)CCC=C(C)C)=C(C)C1=O", "note": "[CoQ10, Ubidecarenone]", "values": [{"measurement": "correlation between concentrations in parotid saliva and plasma", "setting": "[1]; 112 specimens of examples 2 and 3, FIG. 5", "result": "good correlation"}, {"measurement": "correlation between levels in directly collected saliva and plasma", "setting": "[1]; FIG. 6", "result": "weak but recognizable correlation"}, {"measurement": "mean CoQ10 level in parotid saliva", "setting": "[2]", "result": 17.0, "unit": "ng/mL"}, {"measurement": "Collection amount of CoQ10 by the solvents", "setting": "[3]; ethanol 50 V/V %", "result": 3, "unit": "ng/mL"}, {"measurement": "Collection amount of CoQ10 by the solvents", "setting": "[3]; ethanol 75 V/V %", "result": 86, "unit": "ng/mL"}, {"measurement": "Collection amount of CoQ10 by the solvents", "setting": "[3]; ethanol 90 V/V %", "result": 98, "unit": "ng/mL"}, {"measurement": "Collection amount of CoQ10 by the solvents", "setting": "[3]; isopropanol 50 V/V %", "result": 23, "unit": "ng/mL"}, {"measurement": "Collection amount of CoQ10 by the solvents", "setting": "[3]; isopropanol 75 V/V %", "result": 19, "unit": "ng/mL"}, {"measurement": "Collection amount of CoQ10 by the solvents", "setting": "[3]; isopropanol 90 V/V %", "result": 56, "unit": "ng/mL"}, {"measurement": "Collection amount of CoQ10 by the solvents", "setting": "[3]; methanol 50 V/V %", "result": 2, "unit": "ng/mL"}, {"measurement": "Collection amount of CoQ10 by the solvents", "setting": "[3]; methanol 75 V/V %", "result": 2, "unit": "ng/mL"}, {"measurement": "Collection amount of CoQ10 by the solvents", "setting": "[3]; methanol 90 V/V %", "result": 61, "unit": "ng/mL"}]}]}
